# Data: patent US8513428B2, “Process for preparing atazanavir bisulfate and novel forms” (Bristol-Meyers Squibb Company, priority 2009, dated 2013)
# Structures can show the parent of a compound that is named as a salt.
# Assay: moisture-sorption isotherms
# Assay type: physicochemical
# Conditions: in the range from 25 to 75% RH at 25° C.
compound,measurement,value
"COC(=O)N[C@H](C(=O)N[C@@H](Cc1ccccc1)[C@@H](O)CN(Cc1ccc(-c2ccccn2)cc1)NC(=O)[C@@H](NC(=O)OC)C(C)(C)C)C(C)(C)C [Form A, 1-[4-(Pyridin-2-yl)phenyl]-5(S)-2,5-bis{[N-(methoxycarbonyl)-L-tert-leucinyl]amino}-4-(S)-hydroxy-6-phenyl-2-azahexane, Bisulfate salt (Form A)]",moisture-sorption isotherms weight gain,about 0.1%
